Earlier results, collected in US20040023969A1, “Combination of an allosteric alkyne inhibitor of matrix metalloproteinase-13 with celecoxib or valdecoxib” (priority 2002, published 2004).

Cc1onc(-c2ccccc2)c1-c1ccc(S(N)(=O)=O)cc1 [valdecoxib, 4-(5-methyl-3-phenyl-4-isoxazolyl)-benzenesulfonamide]
Tolerability in clinical studies (combined analysis of various clinical studies): well tolerated
Overall upper gastrointestinal safety profile (ulcers, perforations, obstructions and GI bleeds) (compared with ibuprofen, diclofenac and naproxen): significantly better than the conventional NSAIDs studied
